From PMC3994029 (PLoS ONE, 2014) come the findings set out here.

Holding throughout (test): competition of […]-glucose uptake by germinating conidia
Assay type in all cases: cell-based

Assay [1] concerns the target T1, MstC (SorA) (Aspergillus nidulans, UniProt Q5AYG1).
T1 construct: gene ANIA_06669; native full-length protein, 534 aa, in intact germinating conidia (4 h, glycerol)
T1 sequence (Q5AYG1 1-534): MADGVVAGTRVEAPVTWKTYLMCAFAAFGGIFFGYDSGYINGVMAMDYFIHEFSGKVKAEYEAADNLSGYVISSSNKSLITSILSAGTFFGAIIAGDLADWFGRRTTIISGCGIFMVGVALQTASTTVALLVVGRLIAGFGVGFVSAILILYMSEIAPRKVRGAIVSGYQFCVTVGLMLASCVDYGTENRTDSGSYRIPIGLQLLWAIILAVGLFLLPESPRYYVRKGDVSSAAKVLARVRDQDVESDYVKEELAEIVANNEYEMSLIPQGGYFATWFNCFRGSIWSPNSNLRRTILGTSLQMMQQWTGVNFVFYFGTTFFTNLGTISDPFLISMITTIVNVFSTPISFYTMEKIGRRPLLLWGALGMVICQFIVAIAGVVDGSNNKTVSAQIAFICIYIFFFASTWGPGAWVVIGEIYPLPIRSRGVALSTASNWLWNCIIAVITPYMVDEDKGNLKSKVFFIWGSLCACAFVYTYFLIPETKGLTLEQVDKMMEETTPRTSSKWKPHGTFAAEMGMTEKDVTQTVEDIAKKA
As to conditions: wild type V004 conidia germinated on glycerol; 16 µM 14C-glucose, 200-fold excess competitor (3.2 mM).

Assay [2] concerns the target T1, MstC (SorA). As to conditions: wild type V004 conidia germinated on glycerol; 16 µM 14C-glucose, 200-fold excess competitor (3.2 mM). The source holds these as a separate data set.
For another assay, the target named is T2, MstA (Aspergillus nidulans, UniProt Q5ASJ3).
T2 construct: gene ANIA_08737; full-length protein, 527 aa, homologous expression from mstC promoter in mstA mstC double-deleted A. nidulans; intact germinating conidia
Conditions: V152 conidia germinated on glycerol; 90 µM 14C-glucose, 200-fold excess competitor (18 mM); minor low-affinity background uptake.

T2 sequence (Q5ASJ3 entry or part of it): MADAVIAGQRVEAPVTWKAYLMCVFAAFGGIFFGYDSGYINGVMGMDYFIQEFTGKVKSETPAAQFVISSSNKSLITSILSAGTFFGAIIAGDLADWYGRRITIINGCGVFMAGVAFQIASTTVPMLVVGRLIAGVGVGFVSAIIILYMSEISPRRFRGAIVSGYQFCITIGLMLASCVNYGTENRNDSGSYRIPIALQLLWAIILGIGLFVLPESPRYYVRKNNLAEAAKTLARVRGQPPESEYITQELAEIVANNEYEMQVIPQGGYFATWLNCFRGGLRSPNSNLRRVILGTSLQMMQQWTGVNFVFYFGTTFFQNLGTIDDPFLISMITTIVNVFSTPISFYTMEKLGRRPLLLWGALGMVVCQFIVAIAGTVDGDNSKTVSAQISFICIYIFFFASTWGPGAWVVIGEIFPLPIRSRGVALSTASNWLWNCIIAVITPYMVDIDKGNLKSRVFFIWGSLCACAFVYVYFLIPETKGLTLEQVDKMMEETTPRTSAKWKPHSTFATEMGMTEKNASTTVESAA

For the molecule `CO[C@H]1[C@H](O)[C@@H](CO)OC(O)[C@@H]1O` (stereo partly drawn) [3-O-methyl glucose], the “relative uptake rate, % of control” value at MstC (SorA) [1] was “most effective competitor, along with the glucose analogues 2-DOG and 3-O-methyl glucose”. Take `OC[C@H]1OC(O)[C@@H](O)[C@@H](O)[C@@H]1O` (stereo partly drawn) [mannose]: at MstC (SorA) [2], the “% reduction of uptake” value came out at 80%. In addition, the “relative uptake rate, % of control” value at MstA is on record as “mannose is the most effective substrate of those studied in competing against glucose uptake”. Take `OC1OC[C@@H](O)[C@H](O)[C@H]1O` (stereo partly drawn) [xylose]: the “relative uptake rate, % of control” value at MstA was “xylose and galactose may also be minor physiological sugar substrates for this transporter”. On to `OC[C@H]1OC(O)[C@H](O)[C@@H](O)[C@H]1O` (stereo partly drawn) [galactose], for which the “relative uptake rate, % of control” value on MstA was “xylose and galactose may also be minor physiological sugar substrates for this transporter”. In the case of `OC[C@H]1OC(O)C[C@@H](O)[C@@H]1O` (stereo partly drawn) [2-DOG], at MstC (SorA) [1], the “relative uptake rate, % of control” value is “most effective competitor, along with the glucose analogues 2-DOG and 3-O-methyl glucose”.
